From PMC11040670, “Mechanistic and Kinetic Insights into Cellular Uptake of Biomimetic Dinitrosyl Iron Complexes and Intracellular Delivery of NO for Activation of Cytoprotective HO-1” (JACS Au, 2024) come the findings set out here.

Holding throughout (assay type): cell-based, human
Series [1] deals with HCEC. The series can be described thus: Whole-cell EPR: cellular uptake and intracellular formation/decomposition of mononuclear DNIC in HCEC. The settings on record: for tmax for cellular uptake and intracellular transformation (whole-cell EPR): normoxia, 75 μM DNIC–COOH or 1 μM DNIC–COOMe. The procedure: (§1) Cellular uptake of DNIC–COOH and intracellular formation/decomposition of mononuclear DNICs in MSC/N2a/HCEC cells were investigated using EPR spectroscopy. Briefly, cells were seeded into two (or one) 100 mm dish(es) at a density of 2 × 10^6 cells/dish and incubated at 37 °C overnight. On the next day, cells were treated with 100 μM of DNIC–COOH (or 100 μM of DNIC–COOH to N2a and 75 μM of DNIC–COOH to HCEC) and incubated for 0, 0.5, 1, 2, 3, 4, 8, and 24 h, respectively. After removal of the supernatant solution, cells were washed with DPBS before addition of 1 mL of trypsin (0.05%)/EDTA (0.53 mM) and incubation for 5 min at 37 °C. After the obtained cell suspension solutions from two 100 mm dishes were combined and centrifuged at 100g for 5 min, the supernatant was removed before addition of 100 μL of αMEM to DNIC-treated MSC (or MEM to DNIC-treated N2a and HSFM to DNIC-treated HCEC). This solution was then transferred into EPR quartz tube and frozen in N2(l) before the EPR measurements. For each measured EPR spectrum, double integration was executed to obtain the integrated EPR intensity under each condition. Moreover, time-dependent decay of integrated EPR signal intensity after treatment of DNIC–COOH was fit to pseudo-first-order kinetics in order to determine the intracellular half-life for EPR-active mononuclear DNIC. Three independent experiments were executed to measure the average half-life for intracellular decomposition of EPR-active mononuclear DNIC after treatment with DNIC–COOH at 37 °C. On the other hand, at the time point with maximum integrated EPR signal intensity, spin quantitation of intracellular EPR-active DNICs was performed using mononuclear DNIC [PPN][(NO)2Fe(S5)] as a standard according to the methodology used in the previous work.[50] Cellular uptake of DNIC–COOMe (2.5 μM to MSC, 10 μM to N2a, or 1 μM to HCEC) and intracellular formation/decomposition of EPR-active mononuclear DNICs were investigated using EPR spectroscopy in a similar manner.
(§2) Studies of cellular uptake mechanisms were investigated using EPR spectroscopy in combination with pretreatments of alternative inhibitors. After the MSC cells were seeded into two (or one) 100 mm dish(es) at a density of 2 × 10^6 cells/dish and incubated at 37 °C overnight, sequential treatments of 50 μM of NEM for 0.5 h and 100 μM of DNIC–COOH for 2 h were performed before the treated MSC cells were collected for EPR measurement following the procedure described above. […]

The test system of series [2] is MSC. The series can be described thus: Survival of MSC under oxygen–glucose-deprived (OGD) condition. The settings on record: MSC pretreated with DNIC, glucose-free DMEM, 1% oxygen, 48 h. The procedure: (§3) Cell viability study of MSC, N2a, and HCEC cells with or without the treatment of DNIC–COOH was performed using a Cell Counting Kit-8 (IMT Formosa New Materials Co., Ltd., Taiwan) according to the manufacturer’s protocol. Briefly, cells were seeded into a 96-well plate at a density of 4 × 10^3 cells/well for MSC, 1 × 10^4 cells/well for N2a, and 8 × 10^3 cells/well for HCEC, respectively, and incubated overnight. On the next day, cells were treated with DNIC–COOH at different concentrations and incubated for 24 h. The culture medium was then removed before the cells were washed with DPBS. After addition of fresh medium containing CCK-8 solution to the cells and incubation for 1–3 h, the absorbance at 450 nm was then measured on a microplate reader (SpectraMax iD3, Molecular Devices, San Jose, CA) with a reference wavelength of 650 nm. Three independent experiments were executed, and the results were represented as mean ± SEM% (n = 3) with the untreated cells (control) as 100% viability. […]
To simulate the microenvironment of ischemic tissues, the MSC cells with or without DNIC priming were cultured using glucose-free DMEM in a humidified hypoxia incubator (1% oxygen; Heracell VIOS 160i, Thermo Fisher Scientific) for 48 h. Cell viability was assessed by live/dead staining or CCK-8 assay.

Series [3] has as its system MSC. As to the kind of experiment: Whole-cell EPR: cellular uptake and intracellular formation/decomposition of mononuclear DNIC in MSC. The settings on record: for tmax for cellular uptake and intracellular transformation (whole-cell EPR): normoxia, 100 μM DNIC–COOH or 2.5 μM DNIC–COOMe. The method, then: as §1, §2
The test system of series [4] is MSC. The series can be described thus: Cytoprotection of MSC against H2O2 oxidative stress (CCK-8, live/dead). The settings on record: MSC pretreated 8 h (100 μM DNIC–COOH or 2.5 μM DNIC–COOMe), then 250 μM H2O2 24 h. The method, then:
as §3, with “nm.” for “nm. Three independent experiments were executed, and the results were represented as mean ± SEM% (n = 3) with the untreated cells (control) as 100% viability.”
To investigate the capacity of DNIC preconditioning to protect the MSC cells against elevated oxidative stress, cells were pretreated with 2.5 μM of DNIC–COOMe or 100 μM of DNIC–COOH for 8 h before being incubated with 250 μM H2O2 for another 24 h. Cell viability was evaluated by live/dead staining or CCK-8 assay. In a similar manner, DNIC-induced cytoprotective effect in HCECs was evaluated through pretreatment of 1 μM of DNIC–COOMe or 75 μM of DNIC–COOH for 24 h.

Structures are written as SMILES.

Regarding `O=[N][Fe]1([N]=O)[SH](CCC(=O)O)[Fe]([N]=O)([N]=O)[SH]1CCC(=O)O` (stereo not drawn) [DNIC–COOH, [(NO)2Fe(μ-SCH2CH2COOH)2Fe(NO)2]], the “tmax for cellular uptake and intracellular transformation (whole-cell EPR)” value is on record as 8 h in series [1] (HCEC) and 2 h in series [3] (MSC). Further, the entries for the “relative whole-cell EPR signal intensity at gav = 2.03 (control = 100%)” value in series [1] (MβCD-treated HCEC), in series [1] (genistein-treated HCEC) and in series [3] (CPZ-treated MSC) were 77.5 ± 11.1%, 72.1 ± 5.9% and 84.2 ± 11.0%, respectively. In series [2], the “cell viability under OGD condition” value is given as “increase in the number of viable cells”. In addition, in series [4], the survival rate came to 58.7%.
As to `COC(=O)CC[SH]1[Fe]([N]=O)([N]=O)[SH](CCC(=O)OC)[Fe]1([N]=O)[N]=O` (stereo not drawn) [DNIC–COOMe, [(NO)2Fe(μ-SCH2CH2COOCH3)2Fe(NO)2]], the “relative whole-cell EPR signal intensity at gav = 2.03 (control = 100%)” value in series [1] (HCEC, native FBS replaced with 2% NEM-treated FBS) is given as 99.9 ± 15.3%; in series [1] (HCEC, pretreatment of NEM 0.5 h, then DNIC–COOMe 0.5 h, reduction) it was 35.8 ± 2.3%; in series [3] (MSC, native FBS replaced with 20% NEM-treated FBS) it was 172.4 ± 24.1%; in series [3] (MSC, pretreatment of NEM 0.5 h, then DNIC–COOMe 0.5 h, reduction) it was 29.7 ± 16.3%. Further, the “tmax for cellular uptake and intracellular transformation (whole-cell EPR)” value in series [1] (HCEC) and in series [3] (MSC) was 0.5 h throughout. Further, the “cell viability under OGD condition” value in series [2] is reported as “comparable to that of OGD group”. The survival rate in series [4] was 35.8%.
